Test results from ChEMBL document CHEMBL1201862, “PubChem BioAssay data set” (2004).
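Step 1: Grow cells in 96-well plates. Step 2: Expose to compound for 48 hours at 5 concentrations. Step 3: Interpolate endpoints linearly; if unreached, use highest concentration. At the GI50, growth is halved.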 Calls of active or inactive are those of the source. Cut-off read from the data, not from the text of the source: active = GI50 up to about 1.1 µM and inactive = higher.

Tests used:
Test in all cases: DTP human tumour cell line panel, 48 h
[1] = tested on: HCT-15
[2] = tested on: MDA-MB-435
[3] = tested on: T47D
[4] = tested on: HL-60
[5] = tested on: MOLT-4
[6] = tested on: 786-0
[7] = tested on: MCF7
[8] = tested on: NCI-H23
[9] = tested on: A549
[10] = tested on: SF-539
[11] = tested on: HOP-62
[12] = tested on: UACC-257
[13] = tested on: KM12
[14] = tested on: CCRF-CEM
[15] = tested on: Malme-3M
[16] = tested on: SNB-19
[17] = tested on: UACC-62
[18] = tested on: NCI-H522
[19] = tested on: HOP-92

Measured: GI50

Cc1cc2c(cc1Cl)SC(NNc1ccc([N+](=O)[O-])cc1)=NS2(=O)=O
inactive: [2] > 10 µM | [3] > 10 µM | [4] > 10 µM | [5] > 10 µM | [6] > 10 µM | [7] > 10 µM | [8] > 10 µM | [9] > 10 µM | [10] > 10 µM | [11] > 10 µM | [12] > 10 µM | [13] > 10 µM | [14] > 10 µM | [15] > 10 µM | [16] > 10 µM | [17] > 10 µM | [18] > 10 µM
> 10 µM: [1]

[O-][S+](Cc1ccccc1)c1ccccc1Cn1cccc1 (stereo not drawn)
inactive: [2] 42.6 µM | [19] 96.6 µM | [3] > 100 µM | [4] > 100 µM | [6] > 100 µM | [7] > 100 µM | [8] > 100 µM | [9] > 100 µM | [10] > 100 µM | [11] > 100 µM | [12] > 100 µM | [13] > 100 µM | [14] > 100 µM | [15] > 100 µM | [16] > 100 µM | [17] 71.6 µM
> 100 µM: [1]

CCn1c2nc(=O)n(CCCCCCCCSC(c3ccccc3)(c3ccccc3)c3ccccc3)c(=O)c-2nc2ccccc21
8.38 µM: [1]
inactive: [2] 6.12 µM | [19] 15.5 µM | [3] 8.05 µM | [5] 2.9 µM | [6] 14.6 µM | [7] 6.19 µM | [8] 8.3 µM | [10] 64.3 µM | [11] 27.5 µM | [12] 3.73 µM | [13] 9.91 µM | [14] 1.43 µM | [18] 3.13 µM
active: [4] 0.181 µM

N/N=C(\N)SCCCCCCCCCCS/C(N)=N/N
inactive: [2] 32.7 µM | [3] 5.57 µM | [4] 17.3 µM | [6] 31.5 µM | [7] 23.6 µM | [8] 25.8 µM | [9] 18 µM | [10] 29.6 µM | [11] 40.5 µM | [12] 30.1 µM | [13] 20 µM | [14] 17.2 µM | [15] 12 µM | [16] 40.7 µM | [17] 21.5 µM | [18] 17.1 µM
14.3 µM: [1]

CSCCC(NC(c1ccccc1)c1ccccc1)[PH](=O)O (stereo not drawn)
inactive: [2] > 100 µM | [19] > 100 µM | [3] > 100 µM | [4] > 100 µM | [5] > 100 µM | [6] > 100 µM | [7] > 100 µM | [8] > 100 µM | [9] > 100 µM | [11] > 100 µM | [12] > 100 µM | [13] > 100 µM | [14] > 100 µM | [15] > 100 µM | [16] > 100 µM | [17] > 100 µM | [18] > 100 µM
> 100 µM: [1]

O=C(O)C1C(C(=O)O)C(C(=O)O)C1C(=O)O (stereo not drawn)
inactive: [2] > 100 µM | [19] > 100 µM | [3] > 100 µM | [5] > 100 µM | [6] > 100 µM | [7] > 100 µM | [8] > 100 µM | [9] > 100 µM | [10] > 100 µM | [11] > 100 µM | [12] > 100 µM | [13] > 100 µM | [14] > 100 µM | [15] > 100 µM | [16] > 100 µM | [17] > 100 µM | [18] > 100 µM
> 100 µM: [1]

O=C(CC(C(=O)c1cccs1)c1ccsc1)c1ccccc1 (stereo not drawn)
inactive: [2] 31.4 µM | [19] > 100 µM | [3] 24.7 µM | [5] 36.6 µM | [6] > 100 µM | [7] 30.7 µM | [8] 26.4 µM | [9] 21.5 µM | [10] > 100 µM | [11] > 100 µM | [12] > 100 µM | [13] 38.9 µM | [14] > 100 µM | [17] 50.7 µM | [18] 61.7 µM
48.1 µM: [1]

NCCCNOCCCN
inactive: [2] > 100 µM | [19] 37.8 µM | [3] > 100 µM | [5] > 100 µM | [6] > 100 µM | [7] > 100 µM | [8] > 100 µM | [9] > 100 µM | [10] > 100 µM | [11] > 100 µM | [13] > 100 µM | [15] > 100 µM | [16] > 100 µM | [17] > 100 µM | [18] > 100 µM
> 100 µM: [1]

COc1ccc2c(c1O)[C@@]13C=C(O)C(=O)C=C1[C@@H](C2)N(C)CC3
68.7 µM: [1]
inactive: [2] 40.6 µM | [19] 53.2 µM | [3] 63.4 µM | [4] 46.1 µM | [5] 36.1 µM | [6] 75 µM | [7] 65.2 µM | [8] 57.4 µM | [9] > 100 µM | [11] 49.4 µM | [12] 43 µM | [13] 52.1 µM | [14] 43.8 µM | [15] 72.6 µM | [16] 63.1 µM | [17] > 100 µM | [18] 28.8 µM
